Assay results: patent publication US12295936B2, “Immunomodulating urea azalides” (Zoetis Services LLC, priority 2020, dated 2025)
Where two headings read alike, the source gives them in different places.

Assays:
Test in all cases: LPS-stimulated whole bovine blood assay, MSD cytokine detection
Type in all cases: cell-based
[1] = test system: IL-1β; conditions: overstimulation of IL-1β, LPS-stimulated bovine whole blood
[2] = test system: TNF-α; conditions: Bos taurus, read-out: TNF-α (IC50 μM)
[3] = test system: IL-6; conditions: Bos taurus, read-out: IL-6 (IC50 μM)
Description: In order to correlate RNA sequencing data to cytokine changes the whole blood assay was utilized. […] The enhancement result represents an overall stimulation of cytokine levels due to cellular stress or potential toxicity with increasing concentrations of the compound, representing a typical bell shape response curve for immunomodulatory activity.

[4] = LPS-stimulated bovine whole blood

Row | IC50 [2, 4] [µM] | IC50 [3, 4] [µM] | SMILES | IL-1β OS of LPS [1] [µM] | IC50 [2] [µM] | IC50 [3] [µM]
1 | 49 | 36 | CC[C@H]1OC(=O)[C@H](C)[C@@H](O[C@H]2C[C@@](C)(OC)[C@](O)(CNCCCN3CCCCC3)[C@H](C)O2)[C@H](C)[C@@H](O[C@@H]2O[C@H](C)C[C@H](N(C)C(=O)N(C)c3ccccc3)[C@H]2O)[C@](C)(O)C[C@@H](C)CN[C@H](C)[C@@H](O)[C@]1(C)O [Example H-38, 1-((2S,3R,4S,6R)-2-(((2R,3S,4R,5R,8R,10R,11R,12S,13S,14R)-2-ethyl-3,4,10-trihydroxy-13-(((2R,4R,5S,6S)-5-hydroxy-4-methoxy-4,6-dimethyl-5-(((3-(piperidin-1-yl)propyl)amino)methyl)tetrahydro-2H-pyran-2-yl)oxy)-3,5,8,10,12,14-hexamethyl-15-oxo-1-oxa-6-azacyclopentadecan-11-yl)oxy)-3-hydroxy-6-methyltetrahydro-2H-pyran-4-yl)-1,3-dimethyl-3-phenylurea] | >250 |  | 
2 | 109 | 130 | CCCNC[C@]1(O)[C@H](C)O[C@@H](O[C@H]2[C@H](C)[C@@H](O[C@@H]3O[C@H](C)C[C@H](N(C)C(=O)N(C)c4ccccn4)[C@H]3O)[C@](C)(O)C[C@@H](C)CN[C@H](C)[C@@H](O)[C@](C)(O)[C@@H](CC)OC(=O)[C@@H]2C)C[C@@]1(C)OC [Example H-45, 1-((2S,3R,4S,6R)-2-(((2R,3S,4R,5R,8R,10R,11R,12S,13S,14R)-2-ethyl-3,4,10-trihydroxy-13-(((2R,4R,5S,6S)-5-hydroxy-4-methoxy-4,6-dimethyl-5-((propylamino)methyl)tetrahydro-2H-pyran-2-yl)oxy)-3,5,8,10,12,14-hexamethyl-15-oxo-1-oxa-6-azacyclopentadecan-11-yl)oxy)-3-hydroxy-6-methyltetrahydro-2H-pyran-4-yl)-1,3-dimethyl-3-(pyridin-2-yl)urea] | 250 |  | 
3 | > 250 | > 250 | CCCNC[C@]1(O)[C@H](C)O[C@@H](O[C@H]2[C@H](C)[C@@H](O[C@@H]3O[C@H](C)C[C@H](N(C)C(=O)N(C)c4cncnc4)[C@H]3O)[C@](C)(O)C[C@@H](C)CN[C@H](C)[C@@H](O)[C@](C)(O)[C@@H](CC)OC(=O)[C@@H]2C)C[C@@]1(C)OC [Example H-50, 1-((2S,3R,4S,6R)-2-(((2R,3S,4R,5R,8R,10R,11R,12S,13S,14R)-2-ethyl-3,4,10-trihydroxy-13-(((2R,4R,5S,6S)-5-hydroxy-4-methoxy-4,6-dimethyl-5-((propylamino)methyl)tetrahydro-2H-pyran-2-yl)oxy)-3,5,8,10,12,14-hexamethyl-15-oxo-1-oxa-6-azacyclopentadecan-11-yl)oxy)-3-hydroxy-6-methyltetrahydro-2H-pyran-4-yl)-1,3-dimethyl-3-(pyrimidin-5-yl)urea] | >250 |  | 
4 |  |  | CCCNC[C@]1(O)[C@H](C)O[C@@H](O[C@H]2[C@H](C)[C@@H](O[C@@H]3O[C@H](C)C[C@H](N(C)C(=O)N(C)c4cnn(C)c4)[C@H]3O)[C@](C)(O)C[C@@H](C)CN[C@H](C)[C@@H](O)[C@](C)(O)[C@@H](CC)OC(=O)[C@@H]2C)C[C@@]1(C)OC [Example H-58, 1-((2S,3R,4S,6R)-2-(((2R,3S,4R,5R,8R,10R,11R,12S,13S,14R)-2-ethyl-3,4,10-trihydroxy-13-(((2R,4R,5S,6S)-5-hydroxy-4-methoxy-4,6-dimethyl-5-((propylamino)methyl)tetrahydro-2H-pyran-2-yl)oxy)-3,5,8,10,12,14-hexamethyl-15-oxo-1-oxa-6-azacyclopentadecan-11-yl)oxy)-3-hydroxy-6-methyltetrahydro-2H-pyran-4-yl)-1,3-dimethyl-3-(1-methyl-1H-pyrazol-4-yl)urea] | >250 | > 250 | > 250
5 | 106 | > 250 | CC[C@H]1OC(=O)[C@H](C)[C@@H](O[C@H]2C[C@@](C)(OC)[C@](O)(CN)[C@H](C)O2)[C@H](C)[C@@H](O[C@@H]2O[C@H](C)C[C@H](N(C)C(=O)N(C)c3ccccc3)[C@H]2O)[C@](C)(O)C[C@@H](C)CN[C@H](C)[C@@H](O)[C@]1(C)O [Example H-66, 1-((2S,3R,4S,6R)-2-(((2R,3S,4R,5R,8R,10R,11R,12S,13S,14R)-13-(((2R,4R,5S,6S)-5-(aminomethyl)-5-hydroxy-4-methoxy-4,6-dimethyltetrahydro-2H-pyran-2-yl)oxy)-2-ethyl-3,4,10-trihydroxy-3,5,8,10,12,14-hexamethyl-15-oxo-1-oxa-6-azacyclopentadecan-11-yl)oxy)-3-hydroxy-6-methyltetrahydro-2H-pyran-4-yl)-1,3-dimethyl-3-phenylurea] | 250 |  | 
6 | 14 | 8 | CCCNC[C@]1(O)[C@H](C)O[C@@H](O[C@H]2[C@H](C)[C@@H](O[C@@H]3O[C@H](C)C[C@H](N(CCC)C(=O)N(C)c4ccccc4)[C@H]3O)[C@](C)(O)C[C@@H](C)CN[C@H](C)[C@@H](O)[C@](C)(O)[C@@H](CC)OC(=O)[C@@H]2C)C[C@@]1(C)OC [Example H-69, 1-((2S,3R,4S,6R)-2-(((2R,3S,4R,5R,8R,10R,11R,12S,13S,14R)-2-ethyl-3,4,10-trihydroxy-13-(((2R,4R,5S,6S)-5-hydroxy-4-methoxy-4,6-dimethyl-5-((propylamino)methyl)tetrahydro-2H-pyran-2-yl)oxy)-3,5,8,10,12,14-hexamethyl-15-oxo-1-oxa-6-azacyclopentadecan-11-yl)oxy)-3-hydroxy-6-methyltetrahydro-2H-pyran-4-yl)-3-methyl-3-phenyl-1-propylurea] | 6 |  | 
7 | 13 | 4 | CCCNC[C@]1(O)[C@H](C)O[C@@H](O[C@H]2[C@H](C)[C@@H](O[C@@H]3O[C@H](C)C[C@H](N(CC(C)C)C(=O)N(C)c4ccccc4)[C@H]3O)[C@](C)(O)C[C@@H](C)CN[C@H](C)[C@@H](O)[C@](C)(O)[C@@H](CC)OC(=O)[C@@H]2C)C[C@@]1(C)OC [Example H-70, 1-((2S,3R,4S,6R)-2-(((2R,3S,4R,5R,8R,10R,11R,12S,13S,14R)-2-ethyl-3,4,10-trihydroxy-13-(((2R,4R,5S,6S)-5-hydroxy-4-methoxy-4,6-dimethyl-5-((propylamino)methyl)tetrahydro-2H-pyran-2-yl)oxy)-3,5,8,10,12,14-hexamethyl-15-oxo-1-oxa-6-azacyclopentadecan-11-yl)oxy)-3-hydroxy-6-methyltetrahydro-2H-pyran-4-yl)-1-isobutyl-3-methyl-3-phenylurea] | 6 |  | 
8 | 32 | 35 | CCCNC[C@]1(O)[C@H](C)O[C@@H](O[C@H]2[C@H](C)[C@@H](O[C@@H]3O[C@H](C)C[C@H](N(Cc4cccnc4)C(=O)N(C)c4ccccc4)[C@H]3O)[C@](C)(O)C[C@@H](C)CN[C@H](C)[C@@H](O)[C@](C)(O)[C@@H](CC)OC(=O)[C@@H]2C)C[C@@]1(C)OC [Example H-71, 1-((2S,3R,4S,6R)-2-(((2R,3S,4R,5R,8R,10R,11R,12S,13S,14R)-2-ethyl-3,4,10-trihydroxy-13-(((2R,4R,5S,6S)-5-hydroxy-4-methoxy-4,6-dimethyl-5-((propylamino)methyl)tetrahydro-2H-pyran-2-yl)oxy)-3,5,8,10,12,14-hexamethyl-15-oxo-1-oxa-6-azacyclopentadecan-11-yl)oxy)-3-hydroxy-6-methyltetrahydro-2H-pyran-4-yl)-3-methyl-3-phenyl-1-(pyridin-3-ylmethyl)urea] | 16 |  | 
9 | 179 | > 500 | CCCNC[C@]1(O)[C@H](C)O[C@@H](O[C@H]2[C@H](C)[C@@H](O[C@@H]3O[C@H](C)C[C@H](N(C)C(=O)Nc4ccccc4OC)[C@H]3O)[C@](C)(O)C[C@@H](C)CN[C@H](C)[C@@H](O)[C@](C)(O)[C@@H](CC)OC(=O)[C@@H]2C)C[C@@]1(C)OC [Example H-76, 1-((2S,3R,4S,6R)-2-(((2R,3S,4R,5R,8R,10R,11R,12S,13S,14R)-2-ethyl-3,4,10-trihydroxy-13-(((2R,4R,5S,6S)-5-hydroxy-4-methoxy-4,6-dimethyl-5-((propylamino)methyl)tetrahydro-2H-pyran-2-yl)oxy)-3,5,8,10,12,14-hexamethyl-15-oxo-1-oxa-6-azacyclopentadecan-11-yl)oxy)-3-hydroxy-6-methyltetrahydro-2H-pyran-4-yl)-3-(2-methoxyphenyl)-1-methylurea] | 100 |  | 
10 | > 250 | 47 | CCCNC[C@]1(O)[C@H](C)O[C@@H](O[C@H]2[C@H](C)[C@@H](O[C@@H]3O[C@H](C)C[C@H](N(C)C(=O)Nc4ccccc4C)[C@H]3O)[C@](C)(O)C[C@@H](C)CN[C@H](C)[C@@H](O)[C@](C)(O)[C@@H](CC)OC(=O)[C@@H]2C)C[C@@]1(C)OC [Example H-81, 1-((2S,3R,4S,6R)-2-(((2R,3S,4R,5R,8R,10R,11R,12S,13S,14R)-2-ethyl-3,4,10-trihydroxy-13-(((2R,4R,5S,6S)-5-hydroxy-4-methoxy-4,6-dimethyl-5-((propylamino)methyl)tetrahydro-2H-pyran-2-yl)oxy)-3,5,8,10,12,14-hexamethyl-15-oxo-1-oxa-6-azacyclopentadecan-11-yl)oxy)-3-hydroxy-6-methyltetrahydro-2H-pyran-4-yl)-1-methyl-3-(o-tolyl)urea] | 39 |  | 
